The subject of the experiment is SVR cells. Nature of the experiment: SVR cell assay: cell numbers counted at 48 hours, percent inhibition versus control. It counts as cell-based, murine. Conditions: 10,000 SVR cells in 24 well dish, counted at 48 hours; for Percent Inhibition at a Specified Density (μg/ml): 3 / inhibition at 3 µg/mL: 3 μg/ml; for Percent Inhibition at a Specified Density (μg/ml): 6 / inhibition at 6 µg/mL: 6 μg/ml; for inhibition at 3 µg/mL: read-out: Percent Inhibition at a Specified Density (μg/ml): 3; for inhibition at 6 µg/mL: read-out: Percent Inhibition at a Specified Density (μg/ml): 6; for Percent Inhibition at a Specified Density (μg/ml): 1 / inhibition at 1 µg/mL: 1 μg/ml; for inhibition at 1 µg/mL: read-out: Percent Inhibition at a Specified Density (μg/ml): 1.

Experimental: In the case of testing the anti-angiogenic/anti-cancer activity of compounds according to the present invention, an assay based on SVR cells may be employed. […] The cell numbers are counted and compared against controls. Percent inhibition is readily determined from the data obtained.
10,000 SVR cells were seeded in a 24 well dish [Arbiser, et al., J. Am. […] The cell numbers were counted at 48 hours.

On to `O=C(C=Cc1ccccc1)c1ccc2ccccc2c1` [Compound 61, 1-(2-Naphthyl)-3-phenylpropenone], for which the “Percent Inhibition at a Specified Density (μg/ml): 3” value (“Percent Inhibition … 3” for short) amounted to 92.2% and the “Percent Inhibition at a Specified Density (μg/ml): 6” value (“Percent Inhibition … 6” for short) was found to be 94.7%. Also, the “Percent Inhibition at a Specified Density (μg/ml): 9” value (9 μg/ml) stood at 96.0%.

As to `O=C1C(=Cc2ccccc2)CCCC1=Cc1ccccc1` [Compound 75, 2,6-Di(benzylidene)cyclohexanone], where the note is “Mus musculus”, the inhibition at 3 µg/mL came out at 91.3% and the inhibition at 6 µg/mL stood at 92.8%. Further, the inhibition at 9 µg/mL (Mus musculus, 9 μg/ml, read-out: Percent Inhibition at a Specified Density (μg/ml): 9) came out at 97.4%.

Consider `O=C1C(=Cc2cccc3ccccc23)CCc2ccccc21` [Compound 70, 2-(1-Naphthylidene)tetralone], for which the “Percent Inhibition at a Specified Density (μg/ml): 1” value (“Percent Inhibition … 1” for short) worked out at 18.7%, the “Percent Inhibition … 3” value is on record as 15.9% and the “Percent Inhibition … 6” value is given as 23.6%.

Turning to `O=C(C=Cc1c2ccccc2cc2ccccc12)c1c2ccccc2cc2ccccc12` [Compound 53, 1,3-Di(9-Anthryl)propenone], the “Percent Inhibition … 1” value is 0.0%, the “Percent Inhibition … 3” value was 0.0% and the “Percent Inhibition … 6” value came to 4.7%.

Take `O=C(/C=C/c1ccccc1)c1ccccc1` [Compound 1, Chalcone]: under “Mus musculus”, the inhibition at 1 µg/mL worked out at 71.6%, the inhibition at 3 µg/mL amounted to 92.8% and the inhibition at 6 µg/mL was 94.4%.

As to `N#Cc1coc2c(Cl)cc(Cl)cc2c1=O` [Compound 16, 6,8-Dichloro-3-cyanochromone, reference compound], for the setting “Mus musculus”, the inhibition at 1 µg/mL turned out to be 15.2%, the inhibition at 3 µg/mL worked out at 0% and the inhibition at 6 µg/mL turned out to be 0%.

For the compound `O=C(C=Cc1cccnc1)c1ccccc1` [Compound 48, 1-Phenyl-3-(3-pyridyl)propenone], the “Percent Inhibition … 1” value came to 30.0%, the “Percent Inhibition … 3” value worked out at 31.7% and the “Percent Inhibition … 6” value is on record as 83.2%.

Take “2-(2-Naphthylidene)tetralone [Compound 71]”: the “Percent Inhibition … 3” value worked out at 82.8% and the “Percent Inhibition … 6” value worked out at 88.7%. The “Percent Inhibition at a Specified Density (μg/ml): 9” value (9 μg/ml) is listed as 87.1%.

Consider `O=C(O)C=Cc1ccc(Br)cc1` [Compound 11, para-Bromocinnamic Acid, reference compound], for which, for the setting “Mus musculus”, the inhibition at 1 µg/mL was determined as 18.2%, the inhibition at 3 µg/mL was found to be 3.5% and the inhibition at 6 µg/mL stood at 0%.

On to `Cc1cccc(C)c1/C=C/C(=O)c1ccccc1` [Compound 23, 2,6-Dimethylchalcone], for which, for the setting “Mus musculus”, the inhibition at 1 µg/mL was found to be 47.7%, the inhibition at 3 µg/mL stood at 57.9% and the inhibition at 6 µg/mL was 89.6%.

For the origin of these results see patent publication US7432303B2, “Chalcone and its analogs as agents for the inhibition of angiogenesis and related disease states” (James and Emory University, priority 1999, dated 2008).
